Assay results taken from patent US9801832B2, “Pharmaceutical composition having synergistic action of direct catalase inhibitors and modulators of no metabolism or of extracellular superoxide anion production which lead to catalase destruction” (Universitaetsklinikum Freiburg, priority 2012, dated 2017).

How the values were obtained:
[1] = test system: MKN-45 gastric carcinoma cells; assay: Induction of apoptosis in MKN-45 gastric carcinoma cells (percentages of apoptotic cells); type: cell-based, human; details: for synergistic interaction with salicylic acid in the induction of apoptosis: 6 hours (FIGS. 22-25)
Experimental: 12 500 MKN-45 cells in 100 μl (duplicate batches) were treated with the given concentrations of salicylic acid or remained free from salicylic acid. After 10 minutes the given concentrations of cyanidine were added.
12 500 MKN-45 cells in 100 μl (duplicate batches) were treated with 0.1 μg/ml salicylic acid or remained free from salicylic acid (control). […] After 6.5 hours the percentages of apoptotic cells were determined in duplicate batches.
12 500 MKN-45 cells in 100 μl (duplicate batches) either received no additive (control), 2 mM of the singlet oxygen scavenger histidine or 25 μM Caspase-8 inhibitor. […] After another 15 minutes cyanidine was added in the given concentrations. After 6.5 hours of incubation at 37° C. the percentages of apoptotic cells were determined.
12 500 MKN-45 cells in 100 μl (duplicate batches) either received no additive (control), 2 mM of the singlet oxygen scavenger histidine or 25 μM Caspase-8 inhibitor. […] After 6.5 hours incubation at 37° C. the percentage of apoptotic cells was determined. […]
12 500 MKN-45 cells in 100 μl medium were incubated with increasing concentrations of the given active ingredients, in the presence or absence of 0.1 μg/ml salicylic acid for 6 hours and then, the percentages of the apoptotic cells were determined (repeated determination).

tumor cell catalase = target: T1, tumor cell catalase (Homo sapiens, UniProt P04040); assay: Catalase inhibition/inactivation in MKN-45 cells by challenge with exogenous peroxynitrite, NO donor or glucose oxidase; type: cell-based; design: endogenous in cells; host or cells: MKN-45 gastric carcinoma cells; details: 200 μM peroxynitrite
T1 sequence (P04040 2-527 limits assumed): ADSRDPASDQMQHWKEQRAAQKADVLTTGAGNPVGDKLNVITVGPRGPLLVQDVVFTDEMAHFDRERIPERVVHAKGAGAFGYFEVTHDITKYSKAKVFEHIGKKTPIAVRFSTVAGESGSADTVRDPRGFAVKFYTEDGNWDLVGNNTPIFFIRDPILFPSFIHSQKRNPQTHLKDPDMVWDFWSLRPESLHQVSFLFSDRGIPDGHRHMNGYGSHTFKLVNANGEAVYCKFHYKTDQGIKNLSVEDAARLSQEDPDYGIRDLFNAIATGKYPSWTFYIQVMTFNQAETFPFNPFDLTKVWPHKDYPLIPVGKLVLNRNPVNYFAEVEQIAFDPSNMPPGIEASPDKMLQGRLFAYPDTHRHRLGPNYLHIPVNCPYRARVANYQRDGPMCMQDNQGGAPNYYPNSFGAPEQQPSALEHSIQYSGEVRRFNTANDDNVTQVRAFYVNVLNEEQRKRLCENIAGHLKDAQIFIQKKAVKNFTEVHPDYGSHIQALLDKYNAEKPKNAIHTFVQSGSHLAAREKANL
Experimental: Direct catalase inhibition with relevance to the induction of apoptosis in tumor cells can be determined by pre-incubating tumor cells at first in the presence of the singlet oxygen scavenger histidine (2 mM) with the substance to be tested in increasing concentration (between 10 and 30 minutes at 37° C.) and subsequently adding peroxynitrite in the concentration range between 10 and 200 μM. The tumor cells are protected from the apoptosis-triggering effect of peroxynitrite by their membranous catalase. An inhibition of the catalase partially or completely cancels this protection and in the presence of peroxynitrite leads to the induction of apoptosis. The presence of 2 mM histidine ensures that the measured induction of apoptosis is not a singlet oxygen-mediated inactivation of the catalase by destruction of its active center. Alternatively, instead of addition of histidine inhibition of the NADPH oxidase by 100 μM AEBSF may take place. With prevented superoxide anion production also no singlet oxygen formation in the test system is possible.
4000 MKN-45 cells per 100 μl in […] were treated with increasing concentrations of monoclonal antibodies against catalase “Anti-KAT” or Anti-EGFR. After 15 minutes either 200 μM peroxynitrite (“PON”), 0.5 mM DEA-NONOate (rapidly decomposing NO donor), or 2 mU/ml glucose oxidase (GOX) that continuously generates hydrogen peroxide were added. After another two hours at 37° C. the percentages of apoptotic cells were determined in duplicate batches.
The principle of identification is based on the fact that tumor cells (here MKN-45 gastric carcinoma cells) are protected from the apoptosis-triggering effect of exogenously added peroxynitrite by their membranous catalase. Addition of catalase inhibitors sensitizes the cells to the effect of exogenous peroxynitrite.
The experiment was performed in analogy to that described in FIG. 9 except that instead of Anti-KAT a monoclonal antibody against SOD was used. The cells were tested in two different densities, namely 4000 and 12 500 cells per 100 μl. The challenge to test the activity of catalase was carried out with 200 μM peroxynitrite, or 0.5 mM DEA NONOate or 2 mU/ml GOX.
Subsequently, 200 μM or no peroxynitrite was added. After 1.5 hours the percentages of apoptotic cells were determined in duplicate batches.
Subsequently, 200 μM or no peroxynitrite was added. After 1 hour the percentages of apoptotic cells were determined in duplicate batches.
12 500 MKN-45 cells in 100 μl medium received 100 μM AEBSF or no additive. After 15 minutes the given concentrations of cyanidine were added and the batches were incubated for 15 minutes at 37° C. Subsequently, 200 μM peroxynitrite (PON) were added or the batches were not treated with peroxynitrite (control). After 1 hour the percentages of apoptotic cells were determined in duplicate batches.
12 500 MKN-45 cells received no addition (control), or 2 mM histidine, or 100 μM AEBSF or 2.4 mM L-NAME immediately before the addition of the given concentrations of salicylic acid (“0 min”) or 20 minutes after addition of salicyl. 20 minutes after the addition of salicylic acid 200 μM peroxynitrite (PON) were added to all batches except the control batches. After another 2 hours the percentages of apoptotic cells were determined in duplicates.

[2] = 0.1 μg/ml salicylic acid, MKN-45

## N=C(NO)NCC[C@H](N)C(=O)O [NOR-NOHA]
[1]; [2]
  synergistic interaction with salicylic acid in the induction of apoptosis: synergistically reacts

## C=CCN=C=S [allylisothiocyanate]
[1]; [2]
  synergistic interaction with salicylic acid in the induction of apoptosis: synergistically reacts

## N=C(N)NCCC[C@H](N)C(=O)O [arginine]
[1]; [2]
  synergistic interaction with salicylic acid in the induction of apoptosis: synergistically reacts

## C[C@@H]1CC[C@H]2[C@@H](C)C(=O)O[C@@H]3O[C@@]4(C)CC[C@@H]1[C@]32OO4 [artemisinin]
[1]; [2]
  synergistic interaction with salicylic acid in the induction of apoptosis: synergistically reacts

## O=C1O[C@H]([C@@H](O)CO)C(O)=C1O [ascorbic acid]
Tumor cell catalase; MKN-45
  inhibition of tumor cell catalase (sensitization to exogenous peroxynitrite): directly inhibit catalase
[1]
  synergism with cyanidine in the induction of apoptosis: Synergism is achieved
  synergism with taxol in the induction of apoptosis: Synergism is achieved

## Oc1cc(O)c2cc(O)c(-c3ccc(O)c(O)c3)[o+]c2c1.[Cl-] [cyanidine, cyanidine chloride]
Tumor cell catalase; 100 μM AEBSF, MKN-45
  catalase inhibition / sensitization to peroxynitrite with inhibited superoxide anion synthesis: do not exhibit sensitivity for peroxynitrite
Tumor cell catalase; MKN-45
  inhibition of tumor cell catalase (sensitization to exogenous peroxynitrite): leads to a sensitization to peroxynitrite
Tumor cell catalase; 2 mM histidine, 100 μM AEBSF or 2.4 mM L-NAME, MKN-45 (FIGS. 14, 15)
  requirement of singlet oxygen, superoxide anions and NO for catalase inhibition/inactivation: requires singlet oxygen, superoxide anions and NO
[1]; 0.15 ng/ml cyanidine alone, 0.08 μg/ml salicylic acid alone, MKN-45 (FIG. 16)
  induction of apoptosis, substance alone at the concentration of the combination: remained ineffective
[1]; 0.15 ng/ml cyanidine with 0.08 μg/ml salicylic acid, MKN-45 (FIG. 16)
  induction of apoptosis by the combination with salicylic acid: maximum induction of apoptosis
[1]; 0.1 μg/ml salicylic acid, 25 μM Caspase-8 inhibitor, MKN-45, 6.5 hours (FIGS. 18, 19)
  dependence of the synergistic effect with salicylic acid on Caspase-8: independent of Caspase-8
[1]; 0.1 μg/ml salicylic acid, 2 mM histidine, MKN-45, 6.5 hours (FIGS. 18, 19)
  dependence of the synergistic effect with salicylic acid on singlet oxygen: also based on the effect of singlet oxygen
[1]; 0.1 μg/ml salicylic acid, MKN-45, 6.5 hours (FIG. 17)
  synergistic effect with salicylic acid in the induction of apoptosis: remarkable synergistic effect
[1]; Homo sapiens, applied alone, MKN-45, 6 hours (FIG. 16), read-out: concentration at half-maximum value of induction of apoptosis
  EC50: ~0.02 µg/mL
[1]; applied alone, MKN-45, 6 hours (FIG. 16)
  concentration at optimum of induction of apoptosis: 0.3 µg/mL
[1]; given concentrations of salicylic acid, MKN-45, 6 hours (FIG. 16)
  synergistic effect with salicylic acid in the induction of apoptosis: considerable synergistic effect
[1]; substance alone, 25 μM Caspase-8 inhibitor, MKN-45
  dependence of the induction of apoptosis on Caspase-8: depends on the activity of dead receptors (such as FAS) and the thus activated Caspase-8
[1]; substance alone, 2 mM histidine (singlet oxygen scavenger), MKN-45
  dependence of the induction of apoptosis on singlet oxygen: depends on singlet oxygen
[1]; substance alone, 12 500 MKN-45 cells in 100 μl, 4-6.5 hours at 37° C.
  induction of apoptosis: concentration-dependent induction of apoptosis

## C=CCSSCC=C [diallyldisulfide]
[1]; [2]
  synergistic interaction with salicylic acid in the induction of apoptosis: synergistically reacts

## C=CCSCC=C [diallylsulfide]
[1]; [2]
  synergistic interaction with salicylic acid in the induction of apoptosis: not

## COc1cc(O)c(CC=C(C)C)c2c1C(=O)CC(c1ccc(O)cc1)O2 (stereo not drawn) [isoxanthohumol]
[1]; [2]
  synergistic interaction with salicylic acid in the induction of apoptosis: synergistically reacts

## CCCCCCCCCCCCCCCC(=O)O [palmitic acid]
[1]; [2]
  synergistic interaction with salicylic acid in the induction of apoptosis: synergistically reacts

## O=c1c(O)c(-c2ccc(O)c(O)c2)oc2cc(O)cc(O)c12 [quercetin]
[1]; [2]
  synergistic interaction with salicylic acid in the induction of apoptosis: synergistically reacts

## COc1cc(O)c(CC=C(C)C)c(O)c1C(=O)/C=C/c1ccc(O)cc1 [xanthohumol]
[1]; [2]
  synergistic interaction with salicylic acid in the induction of apoptosis: synergistically reacts
